Test results from PubChem BioAssay (NCI).
Where “and” joins values, the source holds several entries; their conditions need not be identical. Equal entries are not always repeated.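 Each compound was tested at five concentrations against cells in 96-well plates for 48 hours. Abbreviation: GI50, concentration required for 50% inhibition of growth. TGI: concentration producing complete growth inhibition.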

Experiments:
Assay in all cases: NCI-60 cell line screen, 48 h
[1] = system: SNB-19 CNS
[2] = system: CCRF-CEM leukemia
[3] = system: UACC-62 melanoma
[4] = system: NCI-H522 lung
[5] = system: OVCAR-4 ovarian
[6] = system: RXF 393 renal
[7] = system: SF-539 CNS
[8] = system: HCT-15 colon
[9] = system: HCC-2998 colon
[10] = system: MDA-MB-435

SMILES | GI50 [1] [µM] | TGI [1] [µM] | GI50 [2] [µM] | TGI [2] | GI50 [3] [µM] | TGI [3] [µM] | GI50 [4] [µM] | TGI [4] | GI50 [5] [µM] | TGI [5] [µM] | GI50 [6] [µM] | TGI [6] [µM] | GI50 [7] [µM] | TGI [7] | GI50 [8] [µM] | TGI [8] | GI50 [9] [µM] | TGI [9] | GI50 [10] [µM] | TGI [10] [µM]
COc1cc2nc(-c3ccc(Cl)cc3)cc(OCCCN3CCCC3)c2cc1OC | 3.14 | 14.6 | 2.14 | 7.09 µM | 2.03 | 4.57 | 2.36 | 8.89 µM | 3 | 22.6 | 1.17 | 3.78 | 2.44 | 8.07 µM | 0.567 | 11.5 µM | 1.86 | 6.01 µM | 2.72 | 10.8
c1cc(CSSCc2ccncc2)ccn1 | – | > 100 | – | 24.2 µM | – | > 100 | – | 60.2 µM | – | > 100 | – | > 75.7 | – | 50.2 µM | – | > 100 µM | – | 58.7 µM | – | > 68.3
C=C1CC[C@@H]2[C@](C)(COC(C)=O)[C@H](OC(C)=O)CC[C@@]2(C)[C@@H]1CC(Nc1ccc(S(=O)(=O)Nc2cc(C)on2)cc1)C1=CCOC1=O (some centres not stated) | 3.12 | 12.2 | 0.477 | 2.71 µM | 2.13 | 7.06 | 1.04 | 2.42 µM | 2.91 | 10.5 | 2.05 | 3.84 | 1.59 | 3.06 µM | 1.5 | 3.83 µM | 2.14 | 4.05 µM | 1.74 | 4.37
CC[C@@H](C(=O)[C@H](C)[C@H](O)[C@@H](C)[C@H]1O[C@H]([C@@H](CC)C(=O)O)CC[C@H]1C)C1O[C@]2(C=C[C@@H](O)[C@]3(CC[C@@](C)([C@H]4CC[C@](O)(CC)[C@H](C)O4)O3)O2)[C@H](C)C[C@@H]1C (some centres not stated) | 0.204 | 4.25 | 0.283 | 12.3 µM | 1.05 | 2.28 | 0.0961 | 2.51 µM | 0.821 | 44.8 | 0.0621 | 1.47 | 0.328 | 4.05 µM | 0.639 | 26.5 µM | 0.178 | 11.9 µM | 1.08 | 2.56
C/C(=N\NC(=S)N1CCN(C2CCCCCC2)CC1)c1ccccn1 | 3.17 | 8.3 | < 0.001 | 0.291 µM and 2.4 µM | – | 1.95 | < 0.001 | 0.12 µM and 0.267 µM | – | 3.12 | 2.45 | 2.5 | 0.0294 | 2.5 µM and 2.01 µM | < 0.001 | 3.55 µM and 2.1 µM | 1.4 | 3.3 µM and 2.08 µM | – | 2
CC1SC2(CCC(c3ccccc3)CC2)N(NC(=O)c2[nH]c3ccc(F)cc3c2-c2ccccc2)C1=O (configuration not stated) | 26.6 | > 100 | 1.59 | 13.4 µM | 6.21 | 27.4 | 7.21 | 24.6 µM | 3.87 | 18.3 | 2.22 | 7.49 | 20 | 49.3 µM | 2.43 | 11.1 µM | 2.51 | 7.05 µM | 6.11 | 39.3
N#Cc1ccsc1NC(=O)COC(=O)c1cccc(S(=O)(=O)N2CCc3ccccc32)c1 | 55.8 | > 100 | 14.5 | > 100 µM | 32 | > 100 | 34.8 | > 100 µM | 64.7 | > 100 | 31.3 | > 100 | 15.1 | > 100 µM | 3.25 | > 100 µM | 39.2 | > 100 µM | 41.4 | > 100
CCCCCCCCCCC/C=C\C[C@H](O)C/C=C1/C(=O)C=C[C@@H]1C/C=C\CCCC(=O)OC | 1.24 | 4.58 | 0.923 | 5.36 µM | 0.553 | 1.33 | 0.753 | 2.36 µM | 0.862 | 3.68 | 0.827 | 3.18 | 1.02 | 3.71 µM | 0.59 | 1.29 µM | 1.24 | 4.01 µM | 0.71 | 1.8
CCCC[n+]1c(/C=C\c2c(OC)cc(OC)cc2OC)ccc2ccccc21 | 0.604 | 6.79 | 1.48 | 18.4 µM | 0.777 | 2.34 | 0.678 | 3.07 µM | 1.68 | 13.6 | 1.59 | 5.87 | 1.44 | 4.65 µM | 2.84 | 12.3 µM | 0.946 | 7.83 µM | 0.393 | 1.87
O=C(O)C1C2C=CC(C2)C1C(=O)O (configuration not stated) | > 100 | > 100 | > 100 | > 100 µM | > 100 | > 100 | > 100 | > 100 µM | > 100 | > 100 | > 100 | > 100 | > 100 | > 100 µM | > 100 | > 100 µM | > 100 | > 100 µM | > 100 | > 100
